Molecules are shown by their SMILES. Several values for one entry are separate records, joined by “and”; a condition that tells them apart may be missing. Equal values may be shown once.

The experiment has as its system Clostridium difficile. Kind of experiment: C. difficile challenge in mice, qualitative fecal pellet analysis. The class given is in vivo, C57BL/6 mouse. Also on record: key: +: positive (for the presence of C. difficile in the stool); −: negative. The conditions noted are these: 50 mg/kg oral gavage Days 0-4, per animal. As to the method: Challenge Preparation: Challenge preparation was performed inside an anaerobe glove box in IW 305 in order to minimize oxygen exposure. A seed stock of the challenge organism (C. difficile) was thawed and added to the appropriate growth medium on Day −1. The organism was incubated anaerobically overnight (18-24 hrs) at 37° C. On the day of challenge (Day 0), the culture was diluted in DPBS to achieve a target concentration of 10^4 CFU/dose. Syringes with attached gavage needles were loaded with challenge material and placed on ice for transfer to the animal group.
Polymer Carrier: The polymer carrier used in these studies was a composition comprising polyethylene glycol 8000 (PEG8000) and hydroxypropyl methylcellulose acetate succinate (HPMCAS-LF). HPMCAS-LF was used to make the polymer insoluble at low pH. The formulation comprising a polymer carrier and sandalwood oil comprised about 50% PEG8000, about 41.67% sandalwood oil and about 8.33% HPMCAS-LF.
60 female C57BL\6 mice that weighed approximately 26-30 grams and were approximately 7-11 weeks old on Day 0 were used. The C57BL/6 mouse is susceptible to C. difficile and used extensively as a good animal model for the evaluation of antibacterial therapeutics. Treatments were administered via oral gavage and/or intraperitoneally in order to mimic treatment in humans. The challenge was administered via oral gavage as this is both an effective and minimally invasive route of administration that mimics the natural route of infection.
The body weights required for randomization were determined in Week −1 (the lowest body weights were excluded from randomization). After randomization, mice were assigned to one of six groups as indicated below in Table 6:
Treatment Procedure: All treatment doses were vortexed before administration to animals. On Days −6, −5 and −4, animals were administered the antibiotic cocktail via oral gavage at a volume of 0.3 mL. Treatments were administered ±1 hour from the initial day of dosing. On Day −1, animals were administered Clindamycin (10 mg/kg) via intraperitoneal (IP) at a volume of 0.4 mL. Post-challenge on Days 0-4, animals were administered the appropriate test article as listed in the table above via oral gavage at a volume of 0.3 mL. Treatments were administered ±1 hour from the initial day of dosing.
Challenge: On Day 0, mice were challenged via oral gavage with Clostridium difficile at a volume of 0.2 mL. The bacterial suspension was supplied (and maintained) on ice in pre filled syringes and inverted prior to administration to each group. […]
Microbiology Analysis: To isolate C. difficile, fecal pellets or swabs were solubilized in PBS and then cultured onto CDSA. […] Results were recorded as positive (for the presence of C. difficile in the stool) or negative.

As to `CN[C@H](CC(C)C)C(=O)N[C@H]1C(=O)N[C@@H](CC(N)=O)C(=O)N[C@H]2C(=O)N[C@H]3C(=O)N[C@H](C(=O)N[C@H](C(=O)O)c4cc(O)cc(O)c4-c4cc3ccc4O)[C@H](O)c3ccc(c(Cl)c3)Oc3cc2cc(c3O[C@@H]2O[C@H](CO)[C@@H](O)[C@H](O)[C@H]2O[C@H]2C[C@](C)(N)[C@H](O)[C@H](C)O2)Oc2ccc(cc2Cl)[C@H]1O` [Vancomycin], the “Qualitative Fecal Pellet Analysis (presence of C. difficile in the stool)” value reads like this: (Day 1) “−”; (Day 2, 50 mg/kg) “− (9×) and +”; (Day 3) “−”; (Day 4) “−”.

For the origin of these results see US10322154B2, “Sandalwood oil and its uses related to clostridium infections” (Santalis Pharmaceuticals, Inc., priority 2012, dated 2019).
